Measured values reported in US20040224958A1, “Pyridopyrimidinone derivatives for treatment of neurodegenerative disease” (priority 2000, published 2004).

Legend:
cdk4/D = cdk4/D (Homo sapiens, UniProt P11802); experiment: Cyclin-Dependent Kinase 4 (cdk4) Assay; format: biochemical; conditions: read-out: cdk4/D IC50
Cdk5/p25 = Cdk5/p25 (Homo sapiens, UniProt Q00535); experiment: Cyclin-Dependent Kinase 5 High Throughput Screening (cdk5-HTS) Assay; format: biochemical; conditions: high throughput screen
Procedure, shortened: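 IC50 determined from 33P incorporation into GST-RbCOOH captured on glutathione plates and read by scintillation counting. Reaction: 1.0 μg/mL Cdk5/p25, 20 μM [γ33P]ATP, pH 7.4 Tris buffer with MgCl2 and DTT, 30 min at room temperature, stopped with EDTA.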

cdk2/cyclinE = cdk2/cyclinE (Homo sapiens, UniProt P24941); experiment: Cyclin-Dependent Kinase Assay cdk2/cyclinE; conditions: cdk2/E IC50
Method: Cyclin-Dependent Kinase Assays (cdk2/cyclinE, cdk2/cyclinA, cdc2/cyclinB)
All components except the ATP were added to the wells, and the plate was placed on a plate mixer for 2 minutes. The reaction was begun by addition of [^32P]ATP, and the plate was incubated at 25° C. for 15 minutes. The reaction was terminated by addition of 0.1 mL of 20% TCA. The plate was kept at 4° C. for at least 1 hour to allow the substrate to precipitate. The wells were then washed five times with 0.2 mL of 10% TCA and ^32p incorporation determined with a beta plate counter (Wallac Inc., Gaithersburg, Md.).

cdk2/cyclinA = cdk2/cyclinA (Homo sapiens, UniProt P24941); experiment: Cyclin-Dependent Kinase Assay cdk2/cyclinA; conditions: cdk2/A IC50
cdc2/cyclinB = cdc2/cyclinB (Homo sapiens, UniProt P06493); experiment: Cyclin-Dependent Kinase Assay cdc2/cyclinB
cdc2/cyclinB, sequence (P06493 whole entry): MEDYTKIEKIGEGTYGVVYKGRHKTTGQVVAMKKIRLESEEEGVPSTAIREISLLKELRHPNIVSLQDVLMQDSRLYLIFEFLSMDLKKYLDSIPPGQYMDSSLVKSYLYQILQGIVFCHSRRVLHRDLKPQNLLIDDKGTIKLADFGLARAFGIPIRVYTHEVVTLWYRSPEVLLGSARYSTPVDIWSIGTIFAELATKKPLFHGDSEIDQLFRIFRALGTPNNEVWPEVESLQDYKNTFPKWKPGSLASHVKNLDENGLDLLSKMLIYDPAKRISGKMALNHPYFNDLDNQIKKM
cdc2/cyclinB, sequence (P14635 whole entry, further chain): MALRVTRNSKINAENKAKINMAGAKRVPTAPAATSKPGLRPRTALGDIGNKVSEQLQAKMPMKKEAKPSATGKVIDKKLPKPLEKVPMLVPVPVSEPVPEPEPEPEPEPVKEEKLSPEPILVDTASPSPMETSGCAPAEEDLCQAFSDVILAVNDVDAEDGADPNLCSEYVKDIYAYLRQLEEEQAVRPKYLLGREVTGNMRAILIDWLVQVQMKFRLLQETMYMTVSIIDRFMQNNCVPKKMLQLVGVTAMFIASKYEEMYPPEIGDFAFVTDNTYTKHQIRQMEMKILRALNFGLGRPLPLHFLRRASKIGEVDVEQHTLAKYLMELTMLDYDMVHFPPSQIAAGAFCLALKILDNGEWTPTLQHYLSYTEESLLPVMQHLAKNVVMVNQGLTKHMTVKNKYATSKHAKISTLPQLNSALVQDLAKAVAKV

cdk4/D, sequence (P11802 whole entry): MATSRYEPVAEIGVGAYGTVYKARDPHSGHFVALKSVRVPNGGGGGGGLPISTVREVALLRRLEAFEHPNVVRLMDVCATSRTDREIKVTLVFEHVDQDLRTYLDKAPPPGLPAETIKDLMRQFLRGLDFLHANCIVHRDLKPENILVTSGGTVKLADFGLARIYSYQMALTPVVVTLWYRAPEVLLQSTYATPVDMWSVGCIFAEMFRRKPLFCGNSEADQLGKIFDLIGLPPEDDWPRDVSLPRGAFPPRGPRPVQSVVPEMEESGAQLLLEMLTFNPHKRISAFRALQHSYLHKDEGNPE
cdk4/D, sequence (P24385 whole entry, further chain): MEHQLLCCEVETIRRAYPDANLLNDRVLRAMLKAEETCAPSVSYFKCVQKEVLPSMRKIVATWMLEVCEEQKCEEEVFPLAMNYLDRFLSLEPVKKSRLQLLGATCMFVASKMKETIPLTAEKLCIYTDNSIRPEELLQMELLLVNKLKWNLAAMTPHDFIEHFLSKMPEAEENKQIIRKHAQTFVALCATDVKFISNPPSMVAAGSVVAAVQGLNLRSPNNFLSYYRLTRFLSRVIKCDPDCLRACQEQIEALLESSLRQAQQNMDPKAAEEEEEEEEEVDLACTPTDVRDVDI

Row | Structure (SMILES) | IC50 (cdk4/D) [nM] | IC50 (Cdk5/p25) [nM] | IC50 (cdk2/cyclinE) [nM] | IC50 (cdk2/cyclinA) [nM] | IC50 (cdc2/cyclinB) [nM]
1 | CCCn1c(=O)ccc2cnc(Nc3ccc(S(N)(=O)=O)cc3)nc21 [Example 317, 4-(7-Oxo-8-propyl-7,8-dihydro-pyrido[2,3-d]pyrimidin-2-ylamino)-benzenesulfonamide] | 978 | 42.3 | 31.8 | 81.7 | 88.4
2 | CCCn1c(=O)ccc2cnc(Nc3ccc(O)c(Cl)c3)nc21 [Example 327, 2-(3-Chloro-4-hydroxy-phenylamino)-8-propyl-8H-pyrido[2,3-d]pyrimidin-7-one] | 189 | 31 | 25 | 67 | 53
3 | CCn1c(=O)ccc2cnc(Nc3ccc(O)c(Cl)c3)nc21 [Example 290, 2-(3-Chloro-4-hydroxy-phenylamino)-8-ethyl-8H1-pyrido[2,3-d]pyrimidin-7-one] | 1690 | 244 | 183 | 430 | 165
4 | CCCCn1c(=O)ccc2cnc(Nc3ccc(F)cc3F)nc21 [Example 368, 8-Butyl-2-(2,4-difluoro-phenylamino)-8H-pyrido[2,3-d]pyrimidin-7-one] | 3010 | 723 | 836 | 3060 | 1360
5 | CCC(C)n1c(=O)ccc2cnc(Nc3cc(Cl)c(Cl)c(Cl)c3)nc21 (stereo not shown) [Example 461, 8-sec-Butyl-2-(3,4,5-trichloro-phenylamino)-8H-pyrido[2,3-d]pyrimidin-7-one] | 550 | 82 | 780 | 1800 | 460
6 | COc1ccc(Nc2ncc3ccc(=O)n(C4CCCC4)c3n2)cc1OC [Example 541, 8-Cyclopentyl-2-(3,4-dimethoxy-phenylamino)-8H-pyrido[2,3-d]pyrimidin-7-one] | 110 | 13.5 | 22.3 | 41.5 | 59.5
7 | CCC(CC)n1c(=O)ccc2cnc(Nc3ccc(Cl)c(C(F)(F)F)c3)nc21 [Example 486, 2-(4-Chloro-3-trifluoromethyl-phenylamino)-8-(1-ethyl-propyl)-8H-pyrido[2,3-d]pyrimidin-7-one] | 1030 | 82.8 | 467 | 920 | 218
8 | CCn1c(=O)ccc2cnc(Nc3ccc(O)cc3F)nc21 [Example 289, 8-Ethyl-2-(2-fluoro-4-hydroxy-phenylamino)-8H-pyrido[2,3-d]pyrimidin-7-one] | 3250 | 720 | 1160 | 2000 | 1250
9 | CCCn1c(=O)ccc2cnc(Nc3ccc(OC)c(OC)c3)nc21 [Example 331, 2-(3,4-Dimethoxy-phenylamino)-8-propyl-8H-pyrido[2,3-d]pyrimidin-7-one] | 2000 | 160 | 950 | 875 | 415
10 | CCC(C)n1c(=O)ccc2cnc(Nc3cc(OC)cc(C(F)(F)F)c3)nc21 (stereo not shown) [Example 463, 8-sec-Butyl-2-(3-methoxy-5-trifluoromethyl-phenylamino)-8H-pyrido[2,3-d]pyrimidin-7-one] | 250 | 180 | 660 | 2000 | 300
11 | CCC(C)n1c(=O)ccc2cnc(Nc3ccc(I)c(Cl)c3)nc21 (stereo not shown) [Example 464, 8-sec-Butyl-2-(3-chloro-4-iodo-phenylamino)-8H-pyrido[2,3-d]pyrimidin-7-one] | 150 | 17 | 130 | 310 | 170
12 | CCCn1c(=O)ccc2cnc(Nc3cccc(I)c3)nc21 [Example 316, 2-(3-Iodo-phenylamino)-8-propyl-8H-pyrido[2,3-d]pyrimidin-7-one] | 492 | 56.6 | 62.5 | 296 | 92.4
13 | CCCCn1c(=O)ccc2cnc(Nc3cc(Cl)c(O)c(Cl)c3)nc21 [Example 384, 8-Butyl-2-(3,5-dichloro-4-hydroxy-phenylamino)-8H-pyrido[2,3-d]pyrimidin-7-one] | 1130 | 91.5 | 25.7 | 98.5 | 115
14 | CC(=O)Nc1cc(Nc2ncc3ccc(=O)n(CC4CC4)c3n2)ccc1C [Example 585] | 210 | 450 | 320 | 180 | 340
15 | CCCn1c(=O)ccc2cnc(Nc3ccc(C)c(Cl)c3)nc21 [Example 347, 2-(3-Chloro-4-methyl-phenylamino)-8-propyl-8H-pyrido[2,3-d]pyrimidin-7-one] | 58 | 35 | 120 | 580 | 140
16 | CC(C)n1c(=O)ccc2cnc(Nc3ccc4c(c3)CCCC4=O)nc21 [Example 431, 8-Isopropyl-2-(5-oxo-5,6,7,8-tetrahydro-naphthalen-2-ylamino)-8H-pyrido[2,3-d]pyrimidin-7-one] | 140 | 23 | 120 | 300 | 170
17 | O=c1ccc2cnc(Nc3cc(Cl)c(O)c(Cl)c3)nc2n1C1CCCC1 [Example 540, 8-Cyclopentyl-2-(3,5-dichloro-4-hydroxy-phenylamino)-8H-pyrido[2,3-d]pyrimidin-7-one] | 710 | 200 | 61.7 | 170 | 310
18 | O=C1CSc2ccc(Nc3ncc4ccc(=O)n(C5CCCC5)c4n3)cc2N1 [Example 556, 8-Cyclopentyl-2-(3-oxo-3,4-dihydro-2H-1,4-benzothiazin-6-ylamino)-8H-pyrido[2,3-d]pyrimidin-7-one] | 19 | 9 | 40 | 16 | 30
19 | O=c1ccc2cnc(Nc3cc(F)cc(F)c3)nc2n1CC1CC1 [Example 575, 8-Cyclopropylmethyl-2-(3,5-difluoro-phenylamino)-8H-pyrido[2,3-d]pyrimidin-7-one] | 540 | 230 | 280 | 330 | 330
20 | Cc1cc(Nc2ncc3ccc(=O)n(C(C)C)c3n2)ccc1Br [Example 442, 2-(4-Bromo-3-methyl-phenylamino)-8-isopropyl-8H-pyrido[2,3-d]pyrimidin-7-one] | 3600 | 440 | 3600 | 1700 | 1900
21 | CCCCn1c(=O)ccc2cnc(Nc3ccc(Cl)c(C(F)(F)F)c3)nc21 [Example 401, 8-Butyl-2-(4-chloro-3-trifluoromethyl-phenylamino)-8H-pyrido[2,3-d]pyrimidin-7-one] | 1300 | 292 | 860 | 880 | 1900
22 | CCCn1c(=O)ccc2cnc(Nc3ccccc3)nc21 [Example 309, 2-Phenylamino-8-propyl-8H-pyrido[2,3-d]pyrimidin-7-one] | 357 | 145 | 157 | 420 | 425
23 | CCCn1c(=O)ccc2cnc(Nc3cccc(C(F)(F)F)c3)nc21 [Example 313, 8-Propyl-2-(3-trifluoromethyl-phenylamino)-8H-pyrido[2,3-d]pyrimidin-7-one] | 3040 | 309 | 334 | 1480 | 360
24 | O=c1ccc2cnc(Nc3ccc(O)cc3F)nc2n1C1CCCC1 [Example 538, 8-Cyclopentyl-2-(2-fluoro-4-hydroxy-phenylamino)-8H-pyrido[2,3-d]pyrimidin-7-one] | 338 | 145 | 72.7 | 320 | 425
25 | Cc1ccc(Nc2ncc3ccc(=O)n(C4CCCC4)c3n2)cc1C [Example 549, 8-Cyclopentyl-2-(3,4-dimethyl-phenylamino)-8H-pyrido[2,3-d]pyrimidin-7-one] | 70 | 59 | 290 | 190 | 200
26 | CCCn1c(=O)ccc2cnc(Nc3ccc(OC)c(Cl)c3)nc21 [Example 310, 2-(3-Chloro-4-methoxy-phenylamino)-8-propyl-8H-pyrido[2,3-d]pyrimidin-7-one] | 486 | 69.4 | 138 | 331 | 215
27 | CCC(CC)n1c(=O)ccc2cnc(Nc3ccc(O)c(Cl)c3)nc21 [Example 496, 2-(3-Chloro-4-hydroxy-phenylamino)-8-(1-ethyl-propyl)-8H-pyrido[2,3-d]pyrimidin-7-one] | 280 | 17.5 | 31 | 89.5 | 24
28 | CCC(C)n1c(=O)ccc2cnc(Nc3cc([N+](=O)[O-])ccc3F)nc21 (stereo not shown) [Example 459, 8-sec-Butyl-2-(2-fluoro-5-nitro-phenylamino)-8H-pyrido[2,3-d]pyrimidin-7-one] | 216 | 196 | 316 | 1200 | 491
29 | CCC(CC)n1c(=O)ccc2cnc(Nc3ccc(Cl)c(C)c3)nc21 [Example 500, 2-(4-Chloro-3-methyl-phenylamino)-8-(1-ethyl-propyl)-8H-pyrido[2,3-d]pyrimidin-7-one] | 98 | 16 | 74 | 340 | 110
